Data taken from BindingDB's records for doi:10.1016/j.ejmech.2021.113242 (South China Agricultural University, 2021).

Test: Inhibition of spike glycoprotein S in SARS-CoV-2 pseudovirus infected human 293T/ACE2 cells assessed as inhibition of viral infection measured after 48 hrs by luciferase reporter gene assay

SMILES | IC50
O=C(/C=C/c1ccc(O)c2oc(-c3ccc(O)c(O)c3)cc12)O[C@H](Cc1ccc(O)c(O)c1)C(=O)O | 3.85 µM
C[C@@H]1O[C@@H](O[C@H]2[C@H](O[C@H]3CC[C@]4(C)[C@H]5CC=C6[C@@H]7CC(C)(C)CC[C@]7(C(=O)Nc7ccccc7)CC[C@@]6(C)[C@]5(C)CC[C@H]4C3(C)C)O[C@H](CO)[C@@H](O[C@@H]3O[C@@H](C)[C@H](O)[C@@H](O)[C@H]3O)[C@@H]2O)[C@H](O)[C@H](O)[C@H]1O | 18.1 µM
COc1ccccc1NC(=O)[C@]12CCC(C)(C)C[C@H]1C1=CC[C@@H]3[C@@]4(C)CC[C@H](O[C@@H]5O[C@H](CO)[C@@H](O[C@@H]6O[C@@H](C)[C@H](O)[C@@H](O)[C@H]6O)[C@H](O)[C@H]5O[C@@H]5O[C@@H](C)[C@H](O)[C@@H](O)[C@H]5O)C(C)(C)[C@@H]4CC[C@@]3(C)[C@]1(C)CC2 | 5.54 µM
COc1cccc(NC(=O)[C@]23CCC(C)(C)C[C@H]2C2=CC[C@@H]4[C@@]5(C)CC[C@H](O[C@@H]6O[C@H](CO)[C@@H](O[C@@H]7O[C@@H](C)[C@H](O)[C@@H](O)[C@H]7O)[C@H](O)[C@H]6O[C@@H]6O[C@@H](C)[C@H](O)[C@@H](O)[C@H]6O)C(C)(C)[C@@H]5CC[C@@]4(C)[C@]2(C)CC3)c1 | 8.33 µM
COc1ccc(NC(=O)[C@]23CCC(C)(C)C[C@H]2C2=CC[C@@H]4[C@@]5(C)CC[C@H](O[C@@H]6O[C@H](CO)[C@@H](O[C@@H]7O[C@@H](C)[C@H](O)[C@@H](O)[C@H]7O)[C@H](O)[C@H]6O[C@@H]6O[C@@H](C)[C@H](O)[C@@H](O)[C@H]6O)C(C)(C)[C@@H]5CC[C@@]4(C)[C@]2(C)CC3)cc1 | 9.97 µM
C[C@@H]1O[C@@H](O[C@H]2[C@H](O[C@H]3CC[C@]4(C)[C@H]5CC=C6[C@@H]7CC(C)(C)CC[C@]7(C(=O)Nc7ccccc7Cl)CC[C@@]6(C)[C@]5(C)CC[C@H]4C3(C)C)O[C@H](CO)[C@@H](O[C@@H]3O[C@@H](C)[C@H](O)[C@@H](O)[C@H]3O)[C@@H]2O)[C@H](O)[C@H](O)[C@H]1O | 6.27 µM
C[C@@H]1O[C@@H](O[C@H]2[C@H](O[C@H]3CC[C@]4(C)[C@H]5CC=C6[C@@H]7CC(C)(C)CC[C@]7(C(=O)NCc7ccccc7)CC[C@@]6(C)[C@]5(C)CC[C@H]4C3(C)C)O[C@H](CO)[C@@H](O[C@@H]3O[C@@H](C)[C@H](O)[C@@H](O)[C@H]3O)[C@@H]2O)[C@H](O)[C@H](O)[C@H]1O | 4.37 µM
C[C@@H]1O[C@@H](O[C@H]2[C@H](O[C@H]3CC[C@]4(C)[C@H]5CC=C6[C@@H]7CC(C)(C)CC[C@]7(C(=O)NCc7ccccn7)CC[C@@]6(C)[C@]5(C)CC[C@H]4C3(C)C)O[C@H](CO)[C@@H](O[C@@H]3O[C@@H](C)[C@H](O)[C@@H](O)[C@H]3O)[C@@H]2O)[C@H](O)[C@H](O)[C@H]1O | > 20 µM
C[C@@H]1O[C@@H](O[C@H]2[C@H](O[C@H]3CC[C@]4(C)[C@H]5CC=C6[C@@H]7CC(C)(C)CC[C@]7(C(=O)NCc7ccco7)CC[C@@]6(C)[C@]5(C)CC[C@H]4C3(C)C)O[C@H](CO)[C@@H](O[C@@H]3O[C@@H](C)[C@H](O)[C@@H](O)[C@H]3O)[C@@H]2O)[C@H](O)[C@H](O)[C@H]1O | > 20 µM
C[C@@H]1O[C@@H](O[C@H]2[C@H](O[C@H]3CC[C@]4(C)[C@H]5CC=C6[C@@H]7CC(C)(C)CC[C@]7(C(=O)NCc7cccs7)CC[C@@]6(C)[C@]5(C)CC[C@H]4C3(C)C)O[C@H](CO)[C@@H](O[C@@H]3O[C@@H](C)[C@H](O)[C@@H](O)[C@H]3O)[C@@H]2O)[C@H](O)[C@H](O)[C@H]1O | 5.89 µM
C[C@@H]1O[C@@H](O[C@H]2[C@H](O[C@H]3CC[C@]4(C)[C@H]5CC=C6[C@@H]7CC(C)(C)CC[C@]7(C(=O)N(C)Cc7ccccc7)CC[C@@]6(C)[C@]5(C)CC[C@H]4C3(C)C)O[C@H](CO)[C@@H](O[C@@H]3O[C@@H](C)[C@H](O)[C@@H](O)[C@H]3O)[C@@H]2O)[C@H](O)[C@H](O)[C@H]1O | 7.76 µM
C[C@@H]1O[C@@H](O[C@H]2[C@H](O[C@H]3CC[C@]4(C)[C@H]5CC=C6[C@@H]7CC(C)(C)CC[C@]7(C(=O)NCc7ccccc7F)CC[C@@]6(C)[C@]5(C)CC[C@H]4C3(C)C)O[C@H](CO)[C@@H](O[C@@H]3O[C@@H](C)[C@H](O)[C@@H](O)[C@H]3O)[C@@H]2O)[C@H](O)[C@H](O)[C@H]1O | 5.68 µM
C[C@@H]1O[C@@H](O[C@H]2[C@H](O[C@H]3CC[C@]4(C)[C@H]5CC=C6[C@@H]7CC(C)(C)CC[C@]7(C(=O)NCc7ccccc7Cl)CC[C@@]6(C)[C@]5(C)CC[C@H]4C3(C)C)O[C@H](CO)[C@@H](O[C@@H]3O[C@@H](C)[C@H](O)[C@@H](O)[C@H]3O)[C@@H]2O)[C@H](O)[C@H](O)[C@H]1O | 6.32 µM
C[C@@H]1O[C@@H](O[C@H]2[C@H](O[C@H]3CC[C@]4(C)[C@H]5CC=C6[C@@H]7CC(C)(C)CC[C@]7(C(=O)NCc7ccccc7Br)CC[C@@]6(C)[C@]5(C)CC[C@H]4C3(C)C)O[C@H](CO)[C@@H](O[C@@H]3O[C@@H](C)[C@H](O)[C@@H](O)[C@H]3O)[C@@H]2O)[C@H](O)[C@H](O)[C@H]1O | 9.57 µM
COc1ccccc1CNC(=O)[C@]12CCC(C)(C)C[C@H]1C1=CC[C@@H]3[C@@]4(C)CC[C@H](O[C@@H]5O[C@H](CO)[C@@H](O[C@@H]6O[C@@H](C)[C@H](O)[C@@H](O)[C@H]6O)[C@H](O)[C@H]5O[C@@H]5O[C@@H](C)[C@H](O)[C@@H](O)[C@H]5O)C(C)(C)[C@@H]4CC[C@@]3(C)[C@]1(C)CC2 | 16.8 µM
C[C@@H]1O[C@@H](O[C@H]2[C@H](O[C@H]3CC[C@]4(C)[C@H]5CC=C6[C@@H]7CC(C)(C)CC[C@]7(C(=O)NCCc7ccccc7)CC[C@@]6(C)[C@]5(C)CC[C@H]4C3(C)C)O[C@H](CO)[C@@H](O[C@@H]3O[C@@H](C)[C@H](O)[C@@H](O)[C@H]3O)[C@@H]2O)[C@H](O)[C@H](O)[C@H]1O | 7.37 µM
C[C@@H]1O[C@@H](O[C@H]2[C@H](O[C@H]3CC[C@]4(C)[C@H]5CC=C6[C@@H]7CC(C)(C)CC[C@]7(C(=O)NCCCc7ccccc7)CC[C@@]6(C)[C@]5(C)CC[C@H]4C3(C)C)O[C@H](CO)[C@@H](O[C@@H]3O[C@@H](C)[C@H](O)[C@@H](O)[C@H]3O)[C@@H]2O)[C@H](O)[C@H](O)[C@H]1O | 13.1 µM
C[C@@H]1O[C@@H](O[C@H]2[C@H](O[C@H]3CC[C@]4(C)[C@H]5CC=C6[C@@H]7CC(C)(C)CC[C@]7(C(=O)OCc7ccccc7)CC[C@@]6(C)[C@]5(C)CC[C@H]4C3(C)C)O[C@H](CO)[C@@H](O[C@@H]3O[C@@H](C)[C@H](O)[C@@H](O)[C@H]3O)[C@@H]2O)[C@H](O)[C@H](O)[C@H]1O | 16.8 µM
